pEC50: −log10 of the molar value.
Columns and labels:
[1] = system: MCD diet-induced db/db mouse NASH; test: MCD diet-induced db/db mouse NASH model; assay type: in vivo; details: no data shown
PPAR Delta = target: T1, PPAR Delta (Homo sapiens, UniProt Q03181); test: PathHunter NHR protein interaction test, agonist mode, PPAR Delta; assay type: cell-based
T1 sequence (Q03181 1-441): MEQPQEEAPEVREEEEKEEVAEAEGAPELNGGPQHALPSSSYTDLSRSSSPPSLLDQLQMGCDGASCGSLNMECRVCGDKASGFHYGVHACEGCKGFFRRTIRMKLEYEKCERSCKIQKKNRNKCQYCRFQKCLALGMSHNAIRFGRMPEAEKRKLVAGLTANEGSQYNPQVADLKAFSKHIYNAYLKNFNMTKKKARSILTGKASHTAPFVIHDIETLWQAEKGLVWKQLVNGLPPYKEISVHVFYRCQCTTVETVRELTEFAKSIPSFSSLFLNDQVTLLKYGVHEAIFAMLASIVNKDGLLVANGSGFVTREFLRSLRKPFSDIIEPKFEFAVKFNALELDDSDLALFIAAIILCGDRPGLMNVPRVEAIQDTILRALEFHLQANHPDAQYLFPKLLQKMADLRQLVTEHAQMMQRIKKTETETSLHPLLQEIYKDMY
Source text: (§1) Principles of in Vitro Test of PPAR Agonist Activity
(§2) Nuclear Hormone Receptor (NHR) Test
(§3) PathHunter's NHR protein interaction and nuclear transfer test are used to detect the activation ability of nuclear hormone receptor in a uniform, non-imaging experiment. This technology is called as enzyme fragment complementation […], and is developed by DiscoverX.
(§4) NHR protein test is based on the detection of the protein-protein interaction between a standard length of NHR protein in an activated state and a nuclear fusion protein containing a steroid receptor co-activating peptide (SRCP) region and one or more standard LXXLL acting sequences.
(§5) NHR is labeled on the ProLink™ component of an EFC test system, and the SRCP region and the enzyme receptor component (EA) are fused and expressed in the nucleus. When bound to the ligand, the NHR will transfer to the nucleus and obtain the SRCP region in which a complementary effect is produced, thereby generating an equivalent amount of activated-galactosidase (-Gal), accompanied by the generation of chemical light signals. The benefits associated with this pathway include reduced incubation time of the compound, direct test of an NHR target, use of human NHR sequences with a standard length, and selection of some new classes of compounds based on the disruption of protein-protein interactions.
(§6) The NHR NT test detected the transfer of an NHR between the cytoplasmic and nuclear compartments. The receptor was labeled on the ProLink™ component of the EFC test system, while the EA and nuclear sequence were fused, thereby limiting the expression of EA on the nucleus. Nucleus transfer leaded to the complementary effect with EA, thereby generating one equivalent of activated galactosidase (-Gal), accompanied by the generation of chemical light signals.
(§7) 1. PathHunter NHR cell strains were spread from a frozen stock in accordance with standard operations.
(§8) 2. Cells were seeded onto a 384-well white cell plate of 20 uL/well, and incubated at 37° C. for an appropriate time prior to test. The culture medium contained activated carbon dextran with filtered serum to reduce the level of hormone expression.
(§9) Experiments of Agonist Mode:
(§10) 1. As for the measurement of an agonist activity, it is required to incubate the cells with the compound to induce a response.
2. […]
(§11) 2. The chemiluminescence signals generated by the microplate were to be detected by a PerkinElmer Envision instrument.
(§12) 1. The activity of the compound was analyzed by CIBS data analysis software (ChemInnovation, CA).
(§13) 2. For experiments of agonist mode, the percentage activity is calculated by the following formula: % activity=100%×(the mean RLU of the compound to be tested−the mean background RLU of the medium)/(the mean of maximum control of the ligand−the mean background RLU of the medium)

[2] = system: CCl4-induced C57BL/6 mouse acute liver injury; test: CCl4-induced C57BL/6 mouse acute liver injury experiment; assay type: in vivo; details: no data shown
PPAR Gamma = target: T2, PPAR Gamma (Homo sapiens, UniProt P37231); test: PathHunter NHR protein interaction test, agonist mode, PPAR Gamma; assay type: cell-based
T2 sequence (P37231 1-505): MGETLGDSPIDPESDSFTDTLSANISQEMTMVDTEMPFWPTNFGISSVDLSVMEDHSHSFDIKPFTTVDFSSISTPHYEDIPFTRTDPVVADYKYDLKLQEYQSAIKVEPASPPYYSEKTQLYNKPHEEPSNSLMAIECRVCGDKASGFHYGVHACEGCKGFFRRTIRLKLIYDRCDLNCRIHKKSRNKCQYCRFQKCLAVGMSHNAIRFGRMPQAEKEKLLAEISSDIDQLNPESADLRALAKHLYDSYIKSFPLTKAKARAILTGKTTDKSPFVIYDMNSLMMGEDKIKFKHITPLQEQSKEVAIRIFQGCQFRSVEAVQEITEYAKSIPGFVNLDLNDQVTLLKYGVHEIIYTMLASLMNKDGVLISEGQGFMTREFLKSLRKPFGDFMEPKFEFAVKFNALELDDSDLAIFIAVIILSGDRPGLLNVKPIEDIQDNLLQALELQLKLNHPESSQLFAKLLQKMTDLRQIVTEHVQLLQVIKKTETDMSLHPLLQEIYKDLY
Source text: as §1, §2, §3, §4, §5
The NHR NT test detected the transfer of an NHR between the cytoplasmic and nuclear compartments. […]
as §11, §12, §13

PPAR Alpha = target: T3, PPAR Alpha (Homo sapiens, UniProt Q07869); test: PathHunter NHR protein interaction test, agonist mode, PPAR Alpha; assay type: cell-based
T3 sequence (Q07869 1-468): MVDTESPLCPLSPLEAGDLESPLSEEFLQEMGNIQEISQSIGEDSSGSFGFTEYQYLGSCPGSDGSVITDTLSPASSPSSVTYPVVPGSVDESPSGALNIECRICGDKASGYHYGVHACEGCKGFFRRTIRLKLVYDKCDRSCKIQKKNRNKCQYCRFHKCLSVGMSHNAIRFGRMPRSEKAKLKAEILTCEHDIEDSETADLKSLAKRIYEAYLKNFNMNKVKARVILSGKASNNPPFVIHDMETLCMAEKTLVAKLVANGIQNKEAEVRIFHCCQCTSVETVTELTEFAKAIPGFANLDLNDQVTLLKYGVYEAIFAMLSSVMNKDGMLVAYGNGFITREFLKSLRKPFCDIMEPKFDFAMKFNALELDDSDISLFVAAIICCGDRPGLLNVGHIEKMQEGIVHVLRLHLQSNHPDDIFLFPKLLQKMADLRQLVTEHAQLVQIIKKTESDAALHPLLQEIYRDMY
Source text: as §1, §2, §3, §4, §5, §6, §7, §8, §9, §10
2. […]
as §11, §12, §13

SMILES: CSc1ccc(C(=O)[C@@H]2CN(C(=O)Oc3ccccc3)C[C@H]2Cc2cc(C)c(OC(C)(C)C(=O)O)c(C)c2)cc1 [Compound of formula (I)]
- effect on NAS Score [1]: significantly improving effect
- effect on liver fibrosis [1]: significantly improving effect
- pEC50 (PPAR Delta; agonist mode): > 7.00
- activation effect on PPAR Delta receptor (PPAR Delta; summary of Table 5): significant activation effect
- effect on liver injury [2]: significantly improving effect
- pEC50 (PPAR Gamma; agonist mode): < 6.60
- activation effect on PPAR Gamma receptor (PPAR Gamma; summary of Table 5): selective activation effect
- pEC50 (PPAR Alpha; agonist mode): > 7.00
- activation effect on PPAR Alpha receptor (PPAR Alpha; summary of Table 5): significant activation effect
